From PubChem BioAssay (NCI)
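All cell lines were grown in 96-well plates and treated with compound for 48 hours. TGI marks complete inhibition of growth.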

Columns and labels:
Test in all cases: growth of human tumour cells (NCI), 48 h
[1] = tested on: SF-539 CNS
[2] = tested on: SK-MEL-2 melanoma
[3] = tested on: NCI-H460 lung
[4] = tested on: NCI-H226 lung
[5] = tested on: SK-MEL-5 melanoma
[6] = tested on: MDA-MB-231 breast
[7] = tested on: HT29 colon
[8] = tested on: MALME-3M melanoma
[9] = tested on: HCC-2998 colon
[10] = tested on: HOP-92 NSCLC
[11] = tested on: UACC-257 melanoma
[12] = tested on: OVCAR-5 ovarian
[13] = tested on: EKVX NSCLC
[14] = tested on: SF-268 CNS
[15] = tested on: OVCAR-4 ovarian
[16] = tested on: CAKI-1 renal
[17] = tested on: SNB-75 CNS
[18] = tested on: HOP-62 NSCLC
[19] = tested on: HL-60(TB) leukemia
[20] = tested on: A498 renal
[21] = tested on: T-47D breast
[22] = tested on: ACHN renal
[23] = tested on: MDA-N
[24] = tested on: SW-620 colon
[25] = tested on: M14 melanoma
[26] = tested on: SN12C renal
[27] = tested on: SF-295 CNS
[28] = tested on: HCT-15 colon
[29] = tested on: A549 NSCLC
[30] = tested on: K-562 leukemia
[31] = tested on: MCF7 breast
[32] = tested on: SR leukemia
[33] = tested on: DU-145 prostate
[34] = tested on: HS 578T breast
[35] = tested on: OVCAR-3 ovarian
[36] = tested on: CCRF-CEM leukemia
[37] = tested on: NCI/ADR-RES ovarian
[38] = tested on: 786-0 renal
[39] = tested on: COLO 205 colon
[40] = tested on: SK-OV-3 ovarian
[41] = tested on: UACC-62 melanoma
[42] = tested on: MDA-MB-435
[43] = tested on: NCI-H522 lung
[44] = tested on: KM12 colon
[45] = tested on: RPMI-8226 leukemia
[46] = tested on: IGROV1 ovarian
[47] = tested on: MOLT-4 leukemia
[48] = tested on: SK-MEL-28 melanoma
[49] = tested on: LOX IMVI melanoma
[50] = tested on: RXF 393 renal
[51] = tested on: OVCAR-8 ovarian
[52] = tested on: TK-10 renal
[53] = tested on: HCT-116 colon

CC[C@H](C)[C@H]1NC(=O)[C@@H](NC(=O)[C@@H](CC(C)C)N(C)C(=O)C2CCCN2C(=O)[C@H](C)O)[C@@H](C)OC(=O)[C@@H]2Cc3ccccc3CN2C(=O)[C@@H]2CCCN2C(=O)[C@H](CC(C)C)NC(=O)[C@@H](C)C(=O)[C@H](C(C)C)OC(=O)C[C@@H]1O (stereo partly drawn)
TGI [1]: 8.42 µM | TGI [2]: 1.55 µM | TGI [3]: 5.09 µM | TGI [4]: 6.4 µM | TGI [5]: 2.86 µM | TGI [6]: 10.3 µM | TGI [7]: 10.7 µM | TGI [8]: 5.16 µM | TGI [9]: 3.26 µM | TGI [10]: 28.8 µM | TGI [11]: 6.11 µM | TGI [12]: 12.7 µM | TGI [13]: > 55 µM | TGI [14]: 6.34 µM | TGI [15]: > 25 µM | TGI [16]: > 50 µM | TGI [17]: 1.94 µM | TGI [18]: 12 µM | TGI [19]: 0.433 µM | TGI [20]: 5.96 µM | TGI [21]: > 100 µM | TGI [22]: 15.5 µM | TGI [23]: 12.5 µM | TGI [24]: > 42.6 µM | TGI [25]: 13.3 µM | TGI [26]: 5.56 µM | TGI [27]: > 28.6 µM | TGI [28]: > 100 µM | TGI [29]: 21.3 µM | TGI [30]: > 41.2 µM | TGI [31]: 12.8 µM | TGI [32]: 1.08 µM | TGI [33]: 6.31 µM | TGI [34]: > 38.4 µM | TGI [35]: 6.68 µM | TGI [36]: 1.66 µM | TGI [37]: > 100 µM | TGI [38]: 11.1 µM | TGI [39]: 2.61 µM | TGI [40]: > 42 µM | TGI [41]: 4.47 µM | TGI [42]: 8.1 µM | TGI [43]: > 49.3 µM | TGI [44]: 5.13 µM | TGI [45]: 10.4 µM | TGI [46]: > 73.7 µM | TGI [47]: 5 µM | TGI [48]: 23.1 µM | TGI [49]: 9.11 µM | TGI [50]: 6.48 µM | TGI [51]: > 54.8 µM | TGI [52]: > 70.1 µM | TGI [53]: 5.08 µM
